O=P1(C(Nc2ccccc2)c2ccccc2)OCC2(CO1)COP(=O)(C(Nc1ccccc1)c1ccccc1)OC2 (centres undefined)
Conditions	solubility (mole fraction)
in 1,2-dichloroethane, 283.35 K	0.000119
in 1,2-dichloroethane, 288.25 K	0.000127
in 1,2-dichloroethane, 293.3 K	0.00014
in 1,2-dichloroethane, 297.95 K	0.000153
in 1,2-dichloroethane, 303.45 K	0.000163
in 1,2-dichloroethane, 308.35 K	0.000176
in 1,2-dichloroethane, 313.45 K	0.00019
in 1,2-dichloroethane, 318.25 K	0.000208
in 1,2-dichloroethane, 323.45 K	0.000219
in 1,2-dichloroethane, 327.95 K	0.000231
in 1,2-dichloroethane, 333.35 K	0.000249
in 1,2-dichloroethane, 338.15 K	0.000271
in 1,4-dioxane, 283.15 K	7.3e-05
in 1,4-dioxane, 288.35 K	8.4e-05
in 1,4-dioxane, 293.25 K	0.0001
in 1,4-dioxane, 298.35 K	0.000121
in 1,4-dioxane, 303.15 K	0.000146
in 1,4-dioxane, 308.25 K	0.000176
in 1,4-dioxane, 313.45 K	0.000202
in 1,4-dioxane, 318.65 K	0.000248
in 1,4-dioxane, 323.55 K	0.000286
in 1,4-dioxane, 328.25 K	0.000332
in 1,4-dioxane, 333.2 K	0.000417
in 1,4-dioxane, 338.3 K	0.000479
in THF, 288.45 K	0.00381
in THF, 293.25 K	0.00428
in THF, 298.15 K	0.00481
in THF, 303.15 K	0.0053
in THF, 308.65 K	0.00588
in THF, 313.45 K	0.00645
in THF, 318.45 K	0.00711
in THF, 323.55 K	0.00788
in THF, 328.35 K	0.00862
in THF, 333.25 K	0.01
in THF, 338.15 K	0.0108
in acetic acid, 298.25 K	0.000115
in acetic acid, 303.65 K	0.000156
in acetic acid, 308.15 K	0.000194
in acetic acid, 313.25 K	0.000233
in acetic acid, 318.25 K	0.000288
in acetic acid, 323.15 K	0.000326
in acetic acid, 328.25 K	0.000348
in acetic acid, 333.45 K	0.000406
in acetic acid, 338.15 K	0.000444
in acetone, 283.35 K	9.1e-05
in acetone, 288.25 K	0.000101
in acetone, 293.25 K	0.00011
in acetone, 298.3 K	0.000123
in acetone, 303.35 K	0.000136
in acetone, 308.45 K	0.000151
in acetone, 313.25 K	0.000164
in acetone, 318.55 K	0.000183
in acetone, 323.25 K	0.000205
in acetone, 328.35 K	0.000221
in acetonitrile, 288.3 K	3.6e-05
in acetonitrile, 293.2 K	4.5e-05
in acetonitrile, 298.25 K	5.5e-05
in acetonitrile, 303.15 K	6.1e-05
in acetonitrile, 308.25 K	7.6e-05
in acetonitrile, 313.2 K	8.7e-05
in acetonitrile, 317.95 K	9.8e-05
in acetonitrile, 323.55 K	0.000121
in acetonitrile, 328.45 K	0.000146
in acetonitrile, 333.15 K	0.000169
in acetonitrile, 338.25 K	0.000194
in benzene, 283.25 K	3.1e-05
in benzene, 288.35 K	4.3e-05
in benzene, 293.15 K	6.4e-05
in benzene, 298.45 K	8.2e-05
in benzene, 303.35 K	9.8e-05
in benzene, 308.45 K	0.000123
in benzene, 313.25 K	0.000145
in benzene, 318.3 K	0.000178
in benzene, 323.35 K	0.000199
in benzene, 328.25 K	0.000218
in benzene, 333.15 K	0.000239
in benzene, 338.35 K	0.000266
in dichloromethane, 283.25 K	0.000164
in dichloromethane, 288.3 K	0.000202
in dichloromethane, 293.35 K	0.000268
in dichloromethane, 298.25 K	0.000308
in dichloromethane, 303.35 K	0.000342
in dichloromethane, 308.15 K	0.000388
in dichloromethane, 313.25 K	0.000423
in diethyl ether, 283.35 K	5.5e-05
in diethyl ether, 288.15 K	8.6e-05
in diethyl ether, 292.95 K	0.000126
in diethyl ether, 298.65 K	0.000213
in diethyl ether, 303.25 K	0.000299
in ethanol, 288.25 K	4e-05
in ethanol, 293.15 K	5e-05
in ethanol, 303.25 K	7.4e-05
in ethanol, 308.55 K	9e-05
in ethanol, 313.45 K	0.000113
in ethanol, 317.85 K	0.000141
in ethanol, 323.25 K	0.00017
in ethanol, 328.25 K	0.0002
in ethanol, 333.25 K	0.000243
in ethanol, 338.25 K	0.000285
in ethanol, 343.15 K	0.00036
in isopropanol, 283.45 K	0.000107
in isopropanol, 287.95 K	0.000131
in isopropanol, 293.45 K	0.000156
in isopropanol, 298.15 K	0.000176
in isopropanol, 303.25 K	0.000209
in isopropanol, 308.15 K	0.000234
in isopropanol, 313.25 K	0.000256
in isopropanol, 318.15 K	0.000289
in isopropanol, 323.65 K	0.000312
in isopropanol, 328.55 K	0.000348
in isopropanol, 333.3 K	0.000393
in isopropanol, 338.5 K	0.000414
in toluene, 283.15 K	0.000765
in toluene, 288.25 K	0.00117
in toluene, 293.25 K	0.0015
in toluene, 298.45 K	0.00199
in toluene, 303.15 K	0.00238
in toluene, 308.15 K	0.00287
in toluene, 313.45 K	0.00344
in toluene, 318.65 K	0.00388
in toluene, 323.25 K	0.00449
in toluene, 328.25 K	0.00494
in toluene, 333.25 K	0.00542
in toluene, 338.25 K	0.00614

From BigSolDB 2.1
